Measured values: US20250073209A1, “COVALENT TARGETING OF RhoA FOR CANCER THERAPY” (The University of Hong Kong, priority 2023, published 2025)

Key:
HCT116 cells = assay: Apoptosis assay with Caspase-3/7 Green Detection Reagent; assay type: cell-based, human; conditions: HCT116, 24 h
Method: HCT116 cells were seeded onto a poly-D-lysine coated Ibidi 8-well chamber slide (20,000 cells) and cultured overnight in complete medium at 37° C. with 5% CO2. The cells were treated with DMSO control, Rhosin or CL16 at the indicated concentration along with 5 μM of CellEvent™ Caspase- 3/7 green in serum-free medium for 24 h. Prior to imaging, the medium was exchanged for Hanks' Balanced Salt Solution (HBSS). Confocal fluorescence microscopy was performed using a Zeiss laser scanning microscope 880 with a 20× water-immersion objective lens and ZEN 2.3 (Black Version) software (Carl Zeiss). CellEvent™ Caspase- 3/7 green was excited by a 488 nm diode laser and emission was collected on a META detector between 490 and 525 nm. Image analysis was performed on ImageJ where the number of cells expressing fluorescence within the field was counted against the total number of cells to report the percentage of apoptotic cells. The average percentage was calculated from 3 separate images from the same well.
(§1) The effects of CL16 treatment on cell cycle checkpoint proteins were investigated with immunoblotting of the cell cycle checkpoint proteins in SW620 and HT29 cells after CL16 treatment for 24 h. […] Caspase- 3/7 Green Detection Reagent was used to study apoptosis in HCT116 cells treated with Rhosin by confocal fluorescence imaging. […]

[1] = system: HCT116, HT29 and SW620 cells; assay: Immunoblotting of cell cycle checkpoint proteins; assay type: cell-based, human; conditions: HCT116, HT29 and SW620, 24 h
Method: Anti-RhoA (#2117), anti-GAPDH (#2118), anti-phosphoMLC (#3671), anti-MLC (#3672), anti-FLAG (#8146), anti-GFP (#2956), and anti-GST (#2624) were purchased from Cell Signaling Technology. Cells were washed with PBS and then harvested using cell lysis buffer (1% Triton X100, 10 mM beta glycerol phosphate, 10 mM sodium pyrophosphate, 40 mM HEPES, 4 mM EDTA, pH7.4) with 4% protease/phosphatase inhibitor cocktail (Pierce). Protein samples were quantified using BCA assays (Pierce), normalized and then boiled with 4× Laemmli sampling buffer in 95° C. for 5 mins. Samples were resolved in 10% polyacrylamide gel (Biorad) and then transferred onto PVDF membrane (Biorad) and blocked with blocking buffer (5% bovine serum albumin (BSA) in Tris-buffered saline with 0.1% Tween 20 (TBST)) for 1 h. Membrane was washed in TBST, followed by incubation with corresponding primary antibodies (diluted 1:1000 in 5% BSA/milk in TBST with 1% NaN3) overnight at 4° C. […]
as §1

RhoA = RhoA (Homo sapiens, UniProt P61586); assay: LC-MS/MS on HCT116 cells treated with CL16; assay type: cell-based; parameters: endogenous in cells; host or cells: HCT116; conditions: CL16 25 or 50 μM, 4 hours
Chain of RhoA (P61586 whole entry): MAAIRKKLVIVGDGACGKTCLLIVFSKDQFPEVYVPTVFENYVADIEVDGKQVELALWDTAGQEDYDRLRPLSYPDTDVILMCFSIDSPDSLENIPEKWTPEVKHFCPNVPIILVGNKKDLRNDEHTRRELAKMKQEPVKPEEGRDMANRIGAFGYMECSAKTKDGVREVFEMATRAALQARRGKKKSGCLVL
Method: HCT116 cells were treated with DMSO or CL16 (25 or 50 μM) in complete medium for 4 hours, washed with PBS, harvested, and lysed in PBS by sonication. The protein amount of the samples was determined by BCA assay and normalized. The cell lysates in PBS were reduced by TCEP (1 mM) at 65° C. for 30 min, followed by alkylation with iodoacetamide (18 mM) at 37° C. for 30 min in the dark. The mixtures were added with prechilled acetone (600 μL) for protein precipitation at −20° C. overnight. The samples were centrifuged at 8000g for 10 min at 4° C. The supernatant was discarded and the dried pellet was resuspended in […] in PBS (100 μL). Sequencing grade trypsin (Promega #V5111) were added to the samples for overnight digestion at 37° C. with constant shaking. The solutions were then acidified with formic acid (FA; final concentration 5%), centrifuged at 13,200 rpm for 30 min at 4° C. The supernatant was collected and stored at −80° C. before MS analysis.
The peptide solutions were dried and desalted by C18 Stage tips, and the peptides were loaded onto an Aurora C18 UHPLC column (75 μm i.d.×25 cm length×1.6 μm particle size (IonOpticks Australia) coupled to timsTOF Pro mass spectrometer (Bruker). […]

SMILES: O=C(CCl)N1N=C(c2cc3ccccc3o2)CC1c1ccco1 (stereo not shown) [CL16]
- cell apoptosis (HCT116 cells): mediated cell apoptosis
- cyclin A2 and cyclin B1 levels [1]: no significant changes
- p21 and p27 protein levels [1]: increase in p21 and p27 protein levels
- covalent modification site on RhoA (RhoA): Cys16
